The values that follow come from patent EP0182317A2, “Antineoplastic agent” (priority 1984, dated 1986).

Data set [1] relates to Salmonella typhimurium TA-98. Put plainly: Antimutagenic properties by Ames method with benzo[a]pyrene as mutagen. The format is cell-based. The note with it: for Number of colonies: B(a)P, S-9 mix; for inhibition rate: inhibition of the mutagenic effect of B(a)P. Here is the method:
The experiment was carried out by Ames method using Salmonella typhimurium TA-98 (hereinafter referred to as TA-98) as the test microorganism and benzo[a]pyrene (hereinafter referred to as B(a)P) as the mutagen.
0.1 ml of a solution containing […] of B(a)P and a suitable amount of a compound of the present invention was added to 0.5 ml of S-9 mix and 0.1 ml of a TA-98 suspension. The mixture was incubated at 37°C for 20 min. 2 ml of soft agar was added thereto, mixed well and then spread evenly on a glucose minimum agar medium plate. After the incubation at 37°C for 48 h, the number of colonies formed by the back mutation was counted.
The number of the colonies formed when neither B(a)P nor the compound of the present invention was used was employed as the background.
The antimutagenic properties was shown as the rate of inhibition of the mutagenic effect according to the following formula: [formula]

Data set [2] in a line: 50 % lethal dose from toxic deaths in the Ehrlich carcinoma experiment. It is filed as in vivo, male ICR mouse. The note with it: mice bearing Ehrlich carcinoma, in the abdomen once a day for 7 days; for LD50: 43200 min. Here is the method:
(§1) About 10^6/0.2 ml of Ehrlich carcinoma cells were placed in an abdomen of each male ICR mouse of 5 weeks old. On the next day the administration of the test sample in the abdomen was started. The test sample was given once a day for 7 days. For an untreated group, a physiological saline solution was given in the same manner as above. […] The T/C percent (T/C x 100) was determined from the average survival periods (days) of the treated group and control group. Further, 50 % lethal dose (LD50) was determined from the number of the mice which died of toxicity of the test samples administered.

Data set [3] concerns Ehrlich carcinoma. Put plainly: Antineoplastic effect on Ehrlich carcinoma in mice (survival, T/C percent). The note with it: in the abdomen once a day for 7 days. It is filed as in vivo, male ICR mouse. Here is the method: Antineoplastic effect on Ehrlich carcinoma:
as §1

Data set [4] relates to Hela S3 cells. Put plainly: Inhibition of proliferation of incubated Hela S3 cells. It is filed as cell-based. The conditions noted are these: cells counted 3 days after addition of sample. Here is the method:
Effect of inhibiting the proliferation of incubated Hela S3 cells:
Hela S3 cells were placed on a culture medium (NEM containing 10 % of calf serum in a plastic dish. After 2 days, an organoselenium compound was added thereto. After containing the culture for additional 3 days, the number of the cells was counted. The proliferation inhibition rate was calculated according to the following formula: Inhibition rate (%) = 100 x (B-A) / (B-C) in which A is the final number of the cells counted on the third day after addition of the test sample, B is the final number of the cells in a sample- free control and C is the number of the cells counted immediately after the addition of the test sample. The value of IC50 (50 % inhibitory concentration) was determined from a graph showing the relationship between the concentration of the sample and the inhibition rate.

On to `O=[Se]1OCCO1` [Compound 14, 1,2-ethanediol selenite], for which the Number of colonies in data set [1] (dose 0.5 µg/plate) worked out at 231; in data set [1] (dose 1 µg/plate), 235; in data set [1] (dose 5 µg/plate), 156; in data set [1] (dose 10 µg/plate) it was 145; in data set [1] (dose 50 µg/plate), 76; in data set [1] (dose 100 µg/plate) it was 62. In data set [1] (dose 500 µg/plate), the Number of colonies stood at 32. The inhibition rate in data set [1] (dose 0.5 µg/plate) is 23.1%; in data set [1] (dose 1 µg/plate), 21.6%; in data set [1] (dose 5 µg/plate) it was 51.1%; in data set [1] (dose 10 µg/plate) it was 55.2%; in data set [1] (dose 50 µg/plate) it was 81.0%; in data set [1] (dose 100 µg/plate) it was 86.2%. For the same compound, the inhibition rate in data set [1] (dose 500 µg/plate) turned out to be 97.4%. In addition, the LD50 at 720 h in data set [2] (mouse, in vivo, ip) lay within 4 to 8 mg/kg. Further, in data set [3] (Mus musculus, Ehrlich, ip, 720 h, dose 2.0 mg/kg, observation period 60 days), the response vs control in vivo at 2 mg/kg stood at 193%. In data set [3] (Mus musculus, Ehrlich, ip, 720 h, dose 4.0 mg/kg, observation period 60 days), this compound registered a response vs control in vivo at 4 mg/kg of 266%. The same compound had a response vs control in vivo at 8 mg/kg in data set [3] (Mus musculus, Ehrlich, ip, 720 h, dose 8.0 mg/kg, observation period 60 days) of 108%. Besides, the response vs control in vivo at 16 mg/kg in data set [3] (Mus musculus, Ehrlich, ip, 720 h, dose […], observation period 60 days) was 34%.

On to “selenium oxychloride·pyridine complex [Compound 4]”, for which the Number of colonies in data set [1] (dose 0.5 µg/plate) is listed as 213; in data set [1] (dose 1 µg/plate) it was 192; in data set [1] (dose 5 µg/plate) it was 180; in data set [1] (dose 10 µg/plate), 144; in data set [1] (dose 50 µg/plate), 93; in data set [1] (dose 100 µg/plate), 87. In addition, the Number of colonies in data set [1] (dose 500 µg/plate) was found to be 41. The inhibition rate in data set [1] (dose 0.5 µg/plate) is listed as 23.0%; in data set [1] (dose 1 µg/plate), 32.8%; in data set [1] (dose 5 µg/plate), 37.7%; in data set [1] (dose 10 µg/plate) it was 52.5%; in data set [1] (dose 50 µg/plate) it was 73.4%; in data set [1] (dose 100 µg/plate), 75.8%. The compound further had an inhibition rate in data set [1] (dose 500 µg/plate) of 94.7%. The LD50 in data set [2] is recorded as 8 - 16 mg/kg/day x7. The “Antineoplastic effect (T/C percent)” value in data set [3] (dose 2.0 mg/kg, observation period 30 days) was found to be 178.6%; in data set [3] (dose 2.0 mg/kg, observation period 60 days) it was 218%; in data set [3] (dose 4.0 mg/kg, observation period 30 days), 188.1%; in data set [3] (dose 4.0 mg/kg, observation period 60 days), 270%; in data set [3] (dose 8.0 mg/kg, observation period 30 days), 200.8%; in data set [3] (dose 8.0 mg/kg, observation period 60 days), 297%.

In turn, `O=[Se](Cl)Cl.c1ccncc1` [Selenium oxychloride·pyridine (1:1) complex] showed an IC50 in data set [4] of 0.59 µg/mL.

selenium oxychloride [Compound 3]: the Number of colonies was determined as 205 in data set [1] (dose 0.5 µg/plate); 230 in data set [1] (dose 1 µg/plate); 154 in data set [1] (dose 5 µg/plate); 132 in data set [1] (dose 10 µg/plate); 72 in data set [1] (dose 50 µg/plate); 70 in data set [1] (dose 100 µg/plate). The same compound registered a Number of colonies in data set [1] (dose 500 µg/plate) of 27. The inhibition rate in data set [1] (dose 0.5 µg/plate) is 30.3%; in data set [1] (dose 1 µg/plate) it was 22.0%; in data set [1] (dose 5 µg/plate) it was 52.0%; in data set [1] (dose 10 µg/plate), 60.6%; in data set [1] (dose 50 µg/plate) it was 84.3%; in data set [1] (dose 100 µg/plate), 85.6%. The compound further came in with an inhibition rate in data set [1] (dose 500 µg/plate) of 100%. In data set [2], the LD50 worked out at 6 mg/kg/day x7. Besides, the “Antineoplastic effect (T/C percent)” value in data set [3] (dose 0.75 mg/kg, observation period 60 days) is on record as 141%; in data set [3] (dose 1.5 mg/kg, observation period 60 days), 222%; in data set [3] (dose 3.0 mg/kg, observation period 60 days) it was 168%; in data set [3] (dose 6.0 mg/kg, observation period 60 days), 105%.

For orientation: IC50 means the midpoint of a concentration-inhibition curve. Lower therefore signals higher potency.
